Reference: ChEMBL document CHEMBL3045937, “Synthesis and hypoglycemic activity evaluation of 7-alkoxyl-rhein” (2012)

Key:
Mus musculus [1] = experiment: Hypoglycemic activity in alloxan-induced diabetic Mus musculus (mouse) assessed as blood glucose level at 20 mg/kg, qd for 14 days measured on 7th day (reference value: 19.79 +/- 1.28 mmol/l); type: functional
Mus musculus [2] = experiment: Hypoglycemic activity in alloxan-induced diabetic Mus musculus (mouse) assessed as blood glucose level at 10 mg/kg, qd for 14 days measured on 7th day (reference value: 19.79 +/- 1.28 mmol/l); type: functional
Mus musculus [3] = experiment: Hypoglycemic activity in alloxan-induced diabetic Mus musculus (mouse) assessed as blood glucose level at 10 mg/kg, qd for 14 days measured on 14th day (reference value: 19.04 +/- 1.27 mmol/l); type: functional
Homo sapiens = organism: Homo sapiens; experiment: Inhibition of alpha-glucoamylase (unknown origin) assessed as 1-Ki/Kc X 100% at 100 mg/l after 10 min spectrophotometry
[4] = Inhibition of alpha-glucoamylase (unknown origin) assessed as Ki/Kc at 100 mg/l after 10 min spectrophotometry; values are per cent of control; conditions: Homo sapiens
Mus musculus [5] = experiment: Hypoglycemic activity in alloxan-induced diabetic Mus musculus (mouse) assessed as blood glucose level at 50 mg/kg, qd for 14 days measured on 14th day (reference value: 19.04 +/- 1.27 mmol/l); type: functional
Mus musculus [6] = experiment: Hypoglycemic activity in alloxan-induced diabetic Mus musculus (mouse) assessed as blood glucose level at 50 mg/kg, qd for 14 days measured on 7th day (reference value: 19.79 +/- 1.28 mmol/l); type: functional
Mus musculus [7] = experiment: Hypoglycemic activity in alloxan-induced diabetic Mus musculus (mouse) assessed as blood glucose level at 20 mg/kg, qd for 14 days measured on 14th day (reference value: 19.04 +/- 1.27 mmol/l); type: functional

Compound `CCCCCCCCOc1cc(O)c2c(c1)C(=O)c1cc(C(=O)O)cc(O)c1C2=O` has an Activity (Mus musculus [1]) of 16.79 mmol/L, an Activity (Mus musculus [2]) of 17.05 mmol/L and an Activity (Mus musculus [3]) of 12.03 mmol/L. It also gave an inhibition (Homo sapiens) of 60.6%, a residual activity [4] of 39.4% and an Activity (Mus musculus [5]) of 7.03 mmol/L. The Activity (Mus musculus [6]) was 10.05 mmol/L and the Activity (Mus musculus [7]) was 10.04 mmol/L.
`CCCCCCCCCCCCOc1cc(O)c2c(c1)C(=O)c1cc(C(=O)O)cc(O)c1C2=O` showed an inhibition (Homo sapiens) of 50.7% and a residual activity [4] of 49.3%.
`Cc1cc(O)c2c(c1)C(=O)c1cc(O)cc(O)c1C2=O` gave an inhibition (Homo sapiens) of 23.6% and a residual activity [4] of 76.4%.
Compound `C[C@H]1O[C@H](O[C@H]2[C@H](O)[C@@H](O)[C@@H](O[C@H]3[C@H](O)[C@@H](O)C(O)O[C@@H]3CO)O[C@@H]2CO)[C@H](O)[C@@H](O)[C@@H]1N[C@H]1C=C(CO)[C@@H](O)[C@H](O)[C@H]1O` (some centres not stated) [ACARBOSE] has an Activity (Mus musculus [2]) of 10.58 mmol/L, an Activity (Mus musculus [3]) of 6.87 mmol/L and an inhibition (Homo sapiens) of 91.4%. For the same compound, the residual activity [4] was 8.6%.
In the case of `CCCCOc1cc(O)c2c(c1)C(=O)c1cc(C(=O)O)cc(O)c1C2=O`, the inhibition (Homo sapiens) is reported as 45% and the residual activity [4] is reported as 55%.
Compound `CCCCCCOc1cc(O)c2c(c1)C(=O)c1cc(C(=O)O)cc(O)c1C2=O` has an inhibition (Homo sapiens) of 54.5% and a residual activity [4] of 45.5%.
With `CCCCCCCCCCCCCCCCOc1cc(O)c2c(c1)C(=O)c1cc(C(=O)O)cc(O)c1C2=O` the inhibition (Homo sapiens) was 29.8% and the residual activity [4] was 70.2%.
